Laboratory results as given in US20030186869A1, “Polymer compositions comprising antifibrotic agents, and methods of treatment, pharmaceutical compositions, and methods of preparation therefor” (priority 1990, published 2003).

Tests used:
[1] = tested on: Sprague-Dawley rats housed under hypoxic conditions (10% O2); assay: Hypoxic rat model of pulmonary hypertension, CHOP-PEG; format: in vivo
Protocol: The anti-pulmonary hypertensive activity of the polymer compositions was tested in the hypoxic rat model (as described in detail above). […] PH is manifested histologically by vascular remodeling (collagen accumulation and fibroblastic hypertrophy), increased right ventricular work-load, thickening of the pulmonary artery, and hypertrophy of the right ventricular cardiac wall. […] Drug treatment can take place during the acute induction phase (days 0-7) or following the establishment of experimental PH (day 7 or later). Intravenous (i.v.), subcutaneous (s.c.), intra-tracheal instillation, and osmotic minipump delivery have been tested. Experiments are scored by obtaining the mean RVP measurement. Results are expressed as either RVP in mm Hg, or preferably as the reduction in the RVP by the formula: […] On day 7 the RVP was measured and compared to animals maintained in normoxic conditions (10.4 mm Hg) and to untreated animals kept in hypoxic conditions (19.3 mm Hg).

[2] = tested on: Sprague-Dawley rats housed under hypoxic conditions (10% O2); assay: as above; format: in vivo; conditions: 10 mg in 7-day minipump
RFL-6 cells = assay: IC50 experiment, cytotoxicity / growth inhibition of RFL-6 rat fibroblast cells; format: cell-based
Protocol: In this test two different synthesis batches of cis-hydroxyproline (CHOP) linked to PEG were tested, along with free CHOP. […] The differences between the two batches of CHOP-PEG are not significant.

Substance: poly(PEG-Lys-cHyp amide) [CHOP-PEG]
- reduction of RVP at minimum maximally effective dose ([1]; 0.8 mg total dose per animal, acute PH): > 70%
- reduction of RVP ([1]; 10 mg in 7-day minipump, day 7): 74%
- reduction of RVP ([1]; 7-day miniosmotic pump, both drug treated groups (1 or 4 mg, FIG. 18)): 76%
- reduction of RVP ([1]; 7-day minipump, 1.0 mg): more than 50%
- reduction of RVP ([1]; intratracheal instillation 90 mg on days 0 and 2): 51%
- RVP ([1]; intratracheal instillation 90 mg on days 0 and 2, reduced from 20): 15 mm Hg
- effect on RVP in rats under normoxic conditions ([1]; normoxic, intratracheal instillation, similar treatment): no effect
- reduction of RVP ([1]; single i.v. dose 0.8 mg on day 0, RVP on day 7): ~50%
- reduction of RVP ([1]; subcutaneous route, 7 day hypoxic rat model): minimal reduction of RVP
- minimum dose that reduces RVP maximally in acute PH ([1]; total dose per animal): 0.8 mg
- reduction of RVP ([2]; day 10): 56%
- reduction of RVP ([2]; day 14): 45%
- IC50 (RFL-6 cells; PEG construct, mean ± SD (n), read-out: IC50, AA-Lys-PEG): 5.6 ± 1.5 mM
- inhibition of rat fibroblast growth, polymeric constructs versus free amino acid (RFL-6 cells; two synthesis batches (1 and 2), FIG. 15): to a similar extent
